How the values were obtained:
[1] = biological target: c-met (as expressed in NCI-H596 cells) (human) (UniProt P08581); assay: cell-based or functional assay
EBC-1 shMet-4.5 tumors = assay: Combination efficacy of erlotinib with c-met knockdown (Dox) in the EBC-1 shMet-4.5 NSCLC xenograft model; format: in vivo, nude mice (nu/nu); conditions: EBC-1 shMet-4.5 xenograft
Procedure: Test material. Erlotinib (Tarceva™) was provided by OSI Pharmaceuticals to the Formulations Department at Genentech and was weighed out along with a sufficient amount of vehicle (methylcellulose tween (MCT)). Materials were stored in a refrigerator set to maintain a temperature range of 4° C. to 8° C. Anti-c-met monovalent monoclonal antibody MetMAb (rhuOA5D5v2) (WO2007/063816) was provided by the Antibody Engineering Department at Genentech, Inc., in a clear liquid form. The EBC-1 cell line was obtained from Japanese Collection of Research Bioresources (JCRB). Species. Forty nude mice (nu/nu) were obtained from Charles River Laboratories (CRL) and were acclimatized for at least one week prior to being put on study. Animals were housed in ventilated caging systems in rooms with filters supplying High-Efficiency Particulate Air (HEPA). Only animals that appeared to be healthy and were free of obvious abnormalities were used for the study. Study design. EBC-1 cells were cultured in growth media that consisted of RPMI 1640 media (Invitrogen), 2 mM L-glutamine, and 10% fetal bovine serum. To prepare cells for inoculation into mice, cells were trypsinized, washed with ten milliliters of sterile 1× phosphate buffered saline (PBS). A subset of cells was counted by trypan blue exclusion and the remainder of cells was resuspended in 100 μl of sterile 1× PBS to a concentration of 5×10^7 cells per milliliter. Mice were inoculated subcutaneously in the right sub-scapular region with 5×10^6 EBC-1 cells. […] Mice in Group 1 (control group) were treated with 100 μL vehicle control, methylcellulose tween (MCT), every day (QD) via oral gavage (PO) and were switched to drinking water containing 5% sucrose. […] Dox and sucrose water was changed every 2-3 days. Erlotinib and MCT were dosed for 14 days, stopped for 6 days and then resumed for the remainder of the study (20 days). […] All studies and handling of mice complied with the Institutional Animal Care and Use Committee (IACUC) guidelines. [table] Tumor and Body Weight Measurement. […] Fowler Company, Inc.; Newton, Mass.). The following formula was used with Excel v11.2 (Microsoft Corporation; Redmond, Wash.) to calculate tumor volume: […] Efficacy Data Analysis. Tumor inhibition was plotted using KaleidaGraph 3.6 (Synergy Software; Reading, Pa.). Percent growth inhibition (% Inh) at Day 17 was calculated as follows: […] Tumor incidence (TI) was determined by the number of measurable tumors in each group at Day 17. […] Mean tumor volume and standard error of the mean (SEM) were calculated using JMP software, version 5.1.2 (SAS Institute; Cary, N.C.). Data analysis and generation of p-values using either Student's t-test or the Dunnett's t-test was also done using JMP software, version 5.1.2. […] Mice were then grouped into four treatment arms; […] Vehicles, Group 2: Doxycycline (Dox), Group 3: erlotinib (100 mg/kg), and Group 4: erlotinib+Dox (See Table 6).

[2] = 10 mice per group, any day during the study

Row | Molecule | pMet/total Met in NCI-H596 xenograft tumors, percent of vehicle control (immunoprecipitation and immunoblot, Li-Cor quantification) (% of vehicle control) [1] | number of complete responses (CR; tumor regression of 100%) (EBC-1 shMet-4.5 tumors; [2]) | number of partial responses (PR; tumor regression >50% but <100% of starting tumor volume) (EBC-1 shMet-4.5 tumors; [2]) | reduction in tumor growth compared to the vehicle control (tumor inhibition) (EBC-1 shMet-4.5 tumors; nude mice, day 19, erlotinib 100 mg/kg PO QD, Dox in drinking water) [%]
1 | Anti-c-met monovalent monoclonal antibody MetMAb (rhuOA5D5v2) | 12 |  |  | 
2 | C[C@H]1c2cccc(O)c2C(=O)C2=C(O)[C@]3(O)C(=O)C(C(N)=O)=C(O)[C@@H](N(C)C)[C@@H]3[C@@H](O)[C@@H]21 [Dox, doxycycline] |  | 1 | 2 | 38
